Consider two molecules from patent publication US20170000784A1, “Autophagy Inhibitors” (priority 2013, published 2017).

The term IC50 denotes the concentration needed to halve the response being measured.

Assay [1] deals with Plasmodium berghei. The experiment in a line: In vivo compound efficacy in Plasmodium berghei. The conditions noted are these: mice; oral 50 mg/kg at 4, 24, 48 and 72 hours post-infection; day 4. As for the experimental part:
Mice were infected intravenously with parasitized red blood cells on day 0 (2×10^7 parasitized erythrocytes per mL). Experimental mice were treated at 4, 24, 48, and 72 hours post-infection with an oral dose of Example 7 at 50 mg/kg and were compared to an infected control group for the % reduction in parasitaemia on day 4 (96 hours post-infection) and for mean survival (monitored up to 30 days post-infection). A compound was considered curative if the animal survived to day 30 after infection with no detectable parasites.
The potent anti-malarial activity of Example 7, combined with its therapeutic window in vitro, led us to explore its activity in vivo using a murine model of malaria. Mice are infected with the murine specific Plasmodium, P. berghei, after which an antimalarial treatment regimen is given. Example 7 was given at 50 mg/kg at times 4, 24, 48, and 72 hours post-infection of mice already infected with P. berghei. The reduction in parasitemia, measured as the total blood load of the P. berghei parasite, was compared to an infected control group for the percent reduction of parasite on day 4 (96 hours post-infection). Example 7 was unexpectedly shown to be effective in reducing parasitemia by 99% compared to the infected control group after 4 days, making it an effective antimalarial in these preclinical models.

For assay [2], the system named is P. falciparum NF54 (CQ sensitive). The experiment in a line: In vitro P. falciparum asexual blood stage, [3H]-hypoxanthine, NF54. The format is cell-based, Plasmodium falciparum. As to conditions: for antimalarial activity score: NF54 strain; for IC50: Plasmodium falciparum, NF54, Erythrocyte, read-out: Antimalarial activity (IC50) P. falciparum NF54 (CQ sensitive). Here is the method: In this example, compounds of Formula A, Formula A^1, Formula A^2, Formula A^3 or pharmaceutically acceptable salts thereof, are tested in Plasmodium sp infected cells to determine the effectiveness of these compounds to determine their anti-malarial activity. Exemplary compounds, Example 7 and Example 27 (See Table 1) were dissolved in DMSO at 10 mg/mL and 4× compound dilutions were prepared in screening medium [RPMI 1640 with no hypoxanthine, HEPES (5.94 μg/L), NaHCO3 (2.1 μg/L), Neomycin (100 μg/mL), and Albumax II (5 μg/L)]. Human red blood cells were prepared without and with stock cultures of P. falciparum strains, NF54 (Chloroquinine (CQ) sensitive) and K1 (CQ resistant), to a parasitemia of 0.3% and hematocrit of 2.5%. Using a 96-well plate, 100 μL/well of red blood solution was added along with a 2-fold serial dilution of Example 7 and Example 27. Plates were incubated at 37° C. with 93% N2, 4% CO2, and 3% O2 for 48 hours, after which 50 μL of [3H]-hypoxanthine (0.5 μCi) was added to each well. After 24 hours, plates were harvested with a Betaplate™ cell harvester (Wallac, Zurich Switzerland) which transferred the red blood cells onto a glass fiber filter and washed with distilled water. Dried filters were inserted into a plastic foil with 10 mL of scintillation fluid and counted in a Betaplate™ liquid scintillation counter (Wallac, Zurich Switzerland). Results were obtained as counts per minute (cpm) per well at each concentration.

The test system of assay [3] is phospho-ERK1/2 and LC3-II in A375 cells. Description: Western blot of A375 cells treated with PLX-4032 with and without autophagy inhibitors. The class given is cell-based, human. As to conditions: in combination with PLX-4032, FIG. 16C. Here is the method:
For Western blotting, U2OS cells were seeded in 10 cm plates in 5A McCoy's with 10% FBS at 1×10^6 cells per plate. All melanoma lines were seeded in 10 cm plates in RPMI 1640 with 10% FBS at 1×10^6 cells per plate. After 24 hours, cells were treated with CQ, QN, Example 27, or Example 7 in a dose response of 0.3 μM, 1 μM, 3 μM, 10 μM, and 30 μM for three hours. A375 were treated with PLX-4032 (Selleck Chemicals, S1267) at 10 nM, 100 nM, and 1 μM for three hours with and without CQ, QN, Example 7, and Example 27 at 3 μM and 30 μM. After treatment, cells were lysed [10 mM KPO4, 1 mM EDTA, 10 mM MgCl2, 5 mM EGTA, 50 mM bis-glycerophosphate, 0.5% NP40, 0.1% Brij35, 0.1% sodium deoxycholate, 1 mM NaVO4, 5 mM NaF, 2 mM DTT, and complete protease inhibitors (Sigma, P8340-5 mL)] and 50 μg of protein was resolved by SDS-PAGE. Proteins were transferred to PVDF membranes and probed with primary antibodies [LC3 (Sigma, L7543-200UL), anti-α-tubulin (Sigma, T6199), cathepsin B (Santa Cruz, sc-13985)] for 16 hours at 4° C. followed by a secondary antibody [HRP-linked rabbit or mouse IgG (GE Healthcare, NA934 or NA931) or Odyssey IRDye 680CW Goat anti-rabbit IgG (LI-COR, 926-32221) or IRDye 800CW Goat anti-mouse IgG (LI-COR, 926-32210)] for 1 hour at room temperature. Proteins were detected with enhanced chemiluminescence or using the Odyssey machine and quantified (FIGS. 12, 15, 16, 7 and 11).
Since the melanoma cell lines are capable of undergoing autophagy and sensitive to autophagy inhibition, the inventors questioned whether autophagy inhibitors could improve the efficacy of, or sensitize melanoma cells against cytotoxic and chemotherapeutic drugs for advanced metastatic melanoma. In one example, PLX-4032 drug “vemurafenib” (marketed as ZELBORAF®) is a B-Raf enzyme inhibitor developed by Plexxikon and Genentech for the treatment of late-stage melanoma. The name “vemurafenib” comes from V600E mutated BRAF inhibition. PLX-4032, selectively targets the V600E mutant BRAF and it is unknown how this drug may affect autophagic flux. To determine the effects of the drug on autophagic flux, the present inventors performed experiments to determine whether PLX-4032 induces autophagy, as has been observed with other targeted agents. In some embodiments, the accumulation of LC3-II in response to lysosome inhibition was measured by quantitative Western blotting, as described above. A375 cells were treated with PLX-4032 (10 nM, 100 nM, and 1 μM) for three hours in the presence or absence of CQ.

In assay [4] the test system is P. falciparum K1 (CQ resistant). Description: microbe, parasite or virus in culture. The format is cell-based, Plasmodium falciparum. The conditions noted are these: for antimalarial activity score: K1 strain; for IC50: Plasmodium falciparum, K1, Erythrocyte, read-out: Antimalarial activity (IC50) P. falciparum K1 (CQ resistant). As for the experimental part:
In this example, compounds of Formula A, Formula A^1, Formula A^2, Formula A^3 or pharmaceutically acceptable salts thereof, are tested in Plasmodium sp infected cells to determine the effectiveness of these compounds to determine their anti-malarial activity. […] After 24 hours, plates were harvested with a Betaplate™ cell harvester (Wallac, Zurich Switzerland) which transferred the red blood cells onto a glass fiber filter and washed with distilled water. Dried filters were inserted into a plastic foil with 10 mL of scintillation fluid and counted in a Betaplate™ liquid scintillation counter (Wallac, Zurich Switzerland). Results were obtained as counts per minute (cpm) per well at each concentration.

Read-outs that look alike come from different tables or passages of the source.

In the case of `COc1ccc2nc3cc(Cl)ccc3c(NCCCCN3CCN(C)CC3)c2c1` [Example 7, 6-Chloro-2-methoxy-N-(4-(4-methylpiperazin-1-yl)butyl)acridin-9-amine], in assay [1], the “reduction in parasitemia compared to the infected control group” value is 99%. The antimalarial activity score entry in assay [2] and in assay [4] was “good activity (good activity: IC50<50 ng/mL)” throughout. The IC50 in assay [2] (in vitro, infected human red blood cells) worked out at 4 nM; in assay [4], 23 nM. Besides, the LC3II accumulation result in assay [3] is given as “greater increases in LC3II accumulation”.
Regarding `CN1CCN(CCNc2c3c(nc4cc(Cl)ccc24)CCCC3)CC1` [Example 27, 6-Chloro-N-(2-(4-methylpiperazin-1-yl)ethyl)-1,2,3,4-tetrahydroacridin-9-amine], in assay [2], the antimalarial activity score result is reported as “low activity (low activity: IC50 50-1000 ng/mL)” and the IC50 was 323 nM. For the same molecule, in assay [3], the LC3II accumulation result is reported as “greater increases in LC3II accumulation”. For the same molecule, in assay [4], the antimalarial activity score result was “low activity (low activity: IC50 50-1000 ng/mL)” and the concentration for half-maximal inhibition (IC50) was determined as 131 nM.
